In patent US9346810B2, “Pyrrolopyrimidine compounds and uses thereof” (HUTCHISON MEDIPHARMA LIMITED, priority 2010, dated 2016):
Read-outs that look alike come from different tables or passages of the source.

What was measured:
Assay type in all cases: biochemical
[1] = target: Recombinant human JAK2 catalytic domain (Homo sapiens (Human), UniProt O60674); test: JAK2 kinase assay (Z'-LYTE, Tyr 6 Peptide); details: read-out: IC50 in JAK2 kinase assay
Protocol: (§1) JAK1/2/3 kinase assay are performed in vitro using Kit-Tyr 6 Peptide (Invitrogen, Cat. No. PV4122). TYK2 kinase assay are performed in vitro using Z′-LYTE™ Kinase Assay Kit-Tyr 3 Peptide (Invitrogen, Cat. No. PV3192). […] All compounds are initially tested at 8 different concentrations (1 μM down to 0.0003 μM) using a 1:3 serial dilution scheme.

[2] = target: Recombinant human JAK1 catalytic domain (Homo sapiens (Human), UniProt P23458); test: JAK1 kinase assay (Z'-LYTE, Tyr 6 Peptide)
Protocol: as §1

[3] = target: Recombinant human JAK3 catalytic domain (Homo sapiens (Human), UniProt P52333); test: JAK3 kinase assay (Z'-LYTE, Tyr 6 Peptide)
Protocol: as §1

[4] = read-out: IC50 in JAK1 kinase assay
[5] = read-out: IC50 in JAK3 kinase assay

Recombinant human JAK3 catalytic domain, sequence (P52333 822-1111): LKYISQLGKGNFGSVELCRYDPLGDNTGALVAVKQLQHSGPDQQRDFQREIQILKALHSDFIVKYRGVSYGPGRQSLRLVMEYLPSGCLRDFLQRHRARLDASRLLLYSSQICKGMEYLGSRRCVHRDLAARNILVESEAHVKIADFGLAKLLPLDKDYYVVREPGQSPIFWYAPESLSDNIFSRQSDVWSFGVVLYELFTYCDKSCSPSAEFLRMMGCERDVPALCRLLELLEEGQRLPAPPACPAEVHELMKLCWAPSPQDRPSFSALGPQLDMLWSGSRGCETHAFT
Recombinant human JAK1 catalytic domain, sequence (P23458 875-1153): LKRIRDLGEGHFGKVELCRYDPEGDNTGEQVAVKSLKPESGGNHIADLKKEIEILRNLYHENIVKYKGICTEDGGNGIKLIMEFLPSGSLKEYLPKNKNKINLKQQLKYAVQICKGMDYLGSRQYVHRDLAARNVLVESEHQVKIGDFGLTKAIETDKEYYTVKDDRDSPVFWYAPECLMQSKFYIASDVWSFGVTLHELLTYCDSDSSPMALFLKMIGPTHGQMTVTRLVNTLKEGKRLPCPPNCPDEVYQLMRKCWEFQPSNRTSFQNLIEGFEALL
Recombinant human JAK2 catalytic domain, sequence (O60674 849-1124): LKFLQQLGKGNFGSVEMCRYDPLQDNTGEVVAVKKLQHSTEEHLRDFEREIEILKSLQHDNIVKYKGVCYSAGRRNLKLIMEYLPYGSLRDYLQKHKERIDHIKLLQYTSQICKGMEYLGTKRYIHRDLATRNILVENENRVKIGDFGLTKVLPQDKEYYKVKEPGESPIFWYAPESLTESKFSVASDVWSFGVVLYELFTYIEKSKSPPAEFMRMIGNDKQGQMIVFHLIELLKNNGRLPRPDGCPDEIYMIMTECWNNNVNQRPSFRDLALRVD

IC50 [1] [nM]	IC50 [2, 4] [nM]	Compound	IC50 [3, 5] [nM]	IC50 ([3]; read-out: JAK3 (enzyme, IC50)) [nM]	IC50 ([2]; read-out: JAK1 (enzyme, IC50)) [nM]
100 to 1000	1 to 100	CN(C(=O)Nc1ccc(C(F)(F)F)cc1)[C@@H]1CCN(c2ncnc3[nH]ccc23)C1 [Compound 30]	–	–	–
100 to 1000	1 to 100	CN(c1ccc(Br)cn1)[C@@H]1CCN(c2ncnc3[nH]ccc23)C1 [Compound 68]	–	–	–
100 to 1000	1 to 100	Cc1cc(N(C)[C@@H]2CCN(c3ncnc4[nH]ccc34)C2)ncc1[N+](=O)[O-] [Compound 77]	100 to 1000	–	–
1 to 100	1 to 100	CN(c1ccc(C#N)cc1)[C@@H]1CCN(c2ncnc3[nH]ccc23)C1 [Compound 104]	100 to 1000	–	–
1 to 100	1 to 100	CN(c1ccc(C(F)(F)F)cn1)[C@@H]1CCN(c2ncnc3[nH]ccc23)C1 [Compound 123]	–	–	–
–	–	CN(c1ccc(C(=O)Nc2nccs2)cn1)[C@@H]1CCN(c2ncnc3[nH]ccc23)C1 [Compound 199]	–	522	14
1 to 100	1 to 100	CN(c1ccc(C(=O)NC[C@H](O)c2ccccc2)cc1F)[C@@H]1CCN(c2ncnc3[nH]ccc23)C1 [Compound 202]	–	–	–
–	1 to 100	CN(c1ccc(NS(=O)(=O)c2cccs2)cn1)[C@@H]1CCN(c2ncnc3[nH]ccc23)C1 [Compound 214]	–	–	–
–	1 to 100	CN(c1ccc(NS(=O)(=O)c2cccnc2)cn1)[C@@H]1CCN(c2ncnc3[nH]ccc23)C1 [Compound 215]	–	–	–
100 to 1000	1 to 100	CN(c1ccc(NS(C)(=O)=O)cn1)[C@@H]1CCN(c2ncnc3[nH]ccc23)C1 [Compound 217]	–	–	–
100 to 1000	1 to 100	CC(C)S(=O)(=O)Nc1ccc(N(C)[C@@H]2CCN(c3ncnc4[nH]ccc34)C2)nc1 [Compound 218]	–	–	–
–	1 to 100	CN(c1ccc(NS(=O)(=O)Cc2ccccc2F)cn1)[C@@H]1CCN(c2ncnc3[nH]ccc23)C1 [Compound 219]	–	–	–
–	1 to 100	CN(c1ccc(S(=O)(=O)N[C@@H]2c3ccccc3C[C@H]2O)cn1)[C@@H]1CCN(c2ncnc3[nH]ccc23)C1 [Compound 233]	–	–	–
1 to 100	1 to 100	CN(c1ccc(S(=O)(=O)NC2CC2)cn1)[C@@H]1CCN(c2ncnc3[nH]ccc23)C1 [Compound 236]	1 to 100	–	–
–	1 to 100	COCCNS(=O)(=O)c1ccc(N(C)[C@@H]2CCN(c3ncnc4[nH]ccc34)C2)nc1 [Compound 237]	–	–	–
–	1 to 100	CN(c1ccc(S(=O)(=O)NC(C)(C)C)cn1)[C@@H]1CCN(c2ncnc3[nH]ccc23)C1 [Compound 238]	–	–	–
100 to 1000	1 to 100	CNS(=O)(=O)c1ccc(N(C)[C@@H]2CCN(c3ncnc4[nH]ccc34)C2)nc1 [Compound 239]	–	–	–
1 to 100	1 to 100	CN(c1ccc(S(=O)(=O)NC2COC2)cn1)[C@@H]1CCN(c2ncnc3[nH]ccc23)C1 [Compound 242]	–	–	–
100 to 1000	1 to 100	CN(c1ccc(S(=O)(=O)NCCO)cn1)[C@@H]1CCN(c2ncnc3[nH]ccc23)C1 [Compound 243]	–	–	–
–	1 to 100	C[C@H](O)CNS(=O)(=O)c1ccc(N(C)[C@@H]2CCN(c3ncnc4[nH]ccc34)C2)nc1 [Compound 245]	–	–	–
–	1 to 100	CN(c1ccc(S(=O)(=O)NC2CCC[C@@H]2O)cn1)[C@@H]1CCN(c2ncnc3[nH]ccc23)C1 (stereo partly drawn) [Compound 246]	–	–	–
–	1 to 100	CN(c1ccc(S(=O)(=O)N2CCCC2)cn1)[C@@H]1CCN(c2ncnc3[nH]ccc23)C1 [Compound 247]	–	–	–
–	1 to 100	CN(c1ccc(S(=O)(=O)N2CCNCC2)cn1)[C@@H]1CCN(c2ncnc3[nH]ccc23)C1 [Compound 251]	–	–	–
100 to 1000	1 to 100	CN(c1ccc(S(=O)(=O)N2CCOCC2)cn1)[C@@H]1CCN(c2ncnc3[nH]ccc23)C1 [Compound 252]	–	–	–
–	1 to 100	CN(c1ccc(S(=O)(=O)Nc2ccc(F)cc2)cn1)[C@@H]1CCN(c2ncnc3[nH]ccc23)C1 [Compound 253]	–	–	–
–	1 to 100	CN(c1ccc(S(=O)(=O)NCc2ccc(F)cc2)cn1)[C@@H]1CCN(c2ncnc3[nH]ccc23)C1 [Compound 254]	–	–	–
100 to 1000	1 to 100	CN(c1ccc(S(=O)(=O)NC2CCOCC2)cn1)[C@@H]1CCN(c2ncnc3[nH]ccc23)C1 [Compound 259]	–	–	–

Compound	IC50 [1] [nM]	IC50 [2, 4] [nM]	IC50 [3, 5] [nM]	IC50 ([3]; read-out: JAK3 (enzyme, IC50)) [nM]	IC50 ([2]; read-out: JAK1 (enzyme, IC50)) [nM]
CN(C(=O)Nc1cccc(C#N)c1)[C@@H]1CCN(c2ncnc3[nH]ccc23)C1 [Compound 16, (R)-1-(1-(7H-pyrrolo[2,3-d]pyrimidin-4-yl)pyrrolidin-3-yl)-3-(3-cyanophenyl)-1-methylurea]	100 to 1000	1 to 100	–	–	–
COc1nc(N(C)[C@@H]2CCN(c3ncnc4[nH]ccc34)C2)ccc1C#N [Compound 42]	1 to 100	1 to 100	1 to 100	–	–
CN(c1ccc(Cl)cn1)[C@@H]1CCN(c2ncnc3[nH]ccc23)C1 [Compound 67]	1 to 100	1 to 100	1 to 100	–	–
COc1cc2ncnc(N(C)[C@@H]3CCN(c4ncnc5[nH]ccc45)C3)c2cc1OC [Compound 86]	1 to 100	1 to 100	100 to 1000	–	–
CN(c1ccnc(C#N)c1)[C@@H]1CCN(c2ncnc3[nH]ccc23)C1 [Compound 121]	1 to 100	1 to 100	1 to 100	–	–
CN(c1ccc(S(=O)(=O)C(F)(F)F)cc1)[C@@H]1CCN(c2ncnc3[nH]ccc23)C1 [Compound 122]	1 to 100	1 to 100	–	–	–
N#Cc1ccc(N(CC2CC2)[C@@H]2CCN(c3ncnc4[nH]ccc34)C2)nc1 [Compound 124]	1 to 100	1 to 100	–	–	–
CN(c1cc2cn[nH]c2cn1)[C@@H]1CCN(c2ncnc3[nH]ccc23)C1 [Compound 125, (R)—N-(1-(7H-pyrrolo[2,3-d]pyrimidin-4-yl)pyrrolidin-3-yl)-N-methyl-1H-pyrazolo[3,4-c]pyridin-5-amine]	1 to 100	1 to 100	–	–	–
C#CCN(c1ccc(C#N)cn1)[C@@H]1CCN(c2ncnc3[nH]ccc23)C1 [Compound 128]	1 to 100	1 to 100	–	–	–
CN(c1ccncn1)[C@@H]1CCN(c2ncnc3[nH]ccc23)C1 [Compound 154, (R)—N-(1-(7H-pyrrolo[2,3-d]pyrimidin-4-yl)pyrrolidin-3-yl)-N-methylpyrimidin-4-amine]	100 to 1000	1 to 100	–	–	–
Cc1nc(N(C)[C@@H]2CCN(c3ncnc4[nH]ccc34)C2)ccc1C#N [Compound 155]	1 to 100	1 to 100	–	–	–
CN(c1ccc(-c2nn[nH]n2)cc1F)[C@@H]1CCN(c2ncnc3[nH]ccc23)C1 [Compound 161]	1 to 100	1 to 100	–	–	–
CN(c1ccc(S(=O)(=O)NC[C@H]2CCCO2)cn1)[C@@H]1CCN(c2ncnc3[nH]ccc23)C1 [Compound 241]	1 to 100	1 to 100	–	–	–
